Source: ChEMBL document CHEMBL1149967, “Synthesis and antitumor activity of novel distamycin derivatives” (Bioorg Med Chem Lett, 1996)

Assays:
[1] = system: Mus musculus; assay: In vivo inhibition of L1210 murine leukemia, expressed as optimal non toxic dose (CD2F1 mice were given an injection of […] i.p. and treated on day 1); assay type: functional
[2] = system: L1210; assay: In vitro inhibition of L1210 murine leukemia (Drug sensitivity was determined by counting surviving cells after 48 hr of continuous exposure to at least 4 conc. of drug); assay type: functional, cell-based; conditions: Mus musculus, L1210, 48 h

## C=C(Br)C(=O)Nc1cn(C)c(C(=O)Nc2cc(C(=O)Nc3cc(C(=O)Nc4cc(C(=O)NCCC(=N)N)n(C)c4)n(C)c3)n(C)c2)n1.Cl
[1]
  OD: 6.25 mg/kg

## Cl.Cn1cc(NC(=O)c2cc(NC(=O)c3cc(NC(=O)c4nc(NC(=O)c5ccc(N(CCCl)CCCl)cc5)cn4C)cn3C)cn2C)cc1C(=O)NCCC(=N)N
[2]
  IC50: 2 µg/mL
[1]
  OD: 6.25 mg/kg

## C=C(Br)C(=O)Nc1cc(C(=O)Nc2cc(C(=O)Nc3cc(C(=O)Nc4cc(C(=O)NCCC(=N)N)n(C)c4)n(C)c3)n(C)c2)n(C)n1.Cl
[1]
  OD: 6.25 mg/kg

## Cl.Cn1cc(NC(=O)c2cc(NC(=O)c3cc(NC(=O)c4cc(NC(=O)c5ccc(N(CCCl)CCCl)cc5)nn4C)cn3C)cn2C)cc1C(=O)NCCC(=N)N
[2]
  IC50: 0.0291 µg/mL
[1]
  OD: 3.13 mg/kg

## Cl.Cn1cc(NC(=O)c2cc(NC(=O)c3cc(NC(=O)c4ccc(N(CCCl)CCCl)cc4)cn3C)cn2C)cc1C(=O)NCCC(=N)N [TALLIMUSTINE CHLORIDE]
[1]
  OD: 3.13 mg/kg
